The values that follow come from ChEMBL document CHEMBL1158624, “Prenylcoumarin with Rev-export inhibitory activity from Cnidii Monnieris Fructus” (Bioorg Med Chem Lett, 2010).

Molecules are shown by their SMILES. Active and inactive are the calls of the source. The calls are words filed in the database; no cut-off is given here. Bounds are passed on as bounds.

Type in all cases: cell-based
For assay [1], the target named is T1, Exportin-1 (Homo sapiens, UniProt O14980). The assay can be described thus: Inhibition of CRM1-mediated hemagglutininin-tagged HIV1 Rev protein nuclear export in human HeLa cells assessed as nucleus localization after 12 hrs by indirect fluorescent antibody technique.
For assay [2], the target named is T1, Exportin-1. The assay can be described thus: Inhibition of CRM1-mediated hemagglutininin-tagged HIV1 Rev protein nuclear export in human HeLa cells assessed as nuclear localization at 5 uM after 12 hrs by indirect fluorescent antibody technique.
The target in assay [3] is T1, Exportin-1. The assay can be described thus: Inhibition of CRM1-mediated hemagglutininin-tagged HIV1 Rev protein nuclear export in human HeLa cells assessed as nucleus localization at 25 uM after 12 hrs by indirect fluorescent antibody technique.

In general, IC50 refers to the concentration needed to halve the response being measured. A word on the inhibition: it is the change of the read-out against control, counted positive when it falls.

T1 sequence (O14980 whole entry): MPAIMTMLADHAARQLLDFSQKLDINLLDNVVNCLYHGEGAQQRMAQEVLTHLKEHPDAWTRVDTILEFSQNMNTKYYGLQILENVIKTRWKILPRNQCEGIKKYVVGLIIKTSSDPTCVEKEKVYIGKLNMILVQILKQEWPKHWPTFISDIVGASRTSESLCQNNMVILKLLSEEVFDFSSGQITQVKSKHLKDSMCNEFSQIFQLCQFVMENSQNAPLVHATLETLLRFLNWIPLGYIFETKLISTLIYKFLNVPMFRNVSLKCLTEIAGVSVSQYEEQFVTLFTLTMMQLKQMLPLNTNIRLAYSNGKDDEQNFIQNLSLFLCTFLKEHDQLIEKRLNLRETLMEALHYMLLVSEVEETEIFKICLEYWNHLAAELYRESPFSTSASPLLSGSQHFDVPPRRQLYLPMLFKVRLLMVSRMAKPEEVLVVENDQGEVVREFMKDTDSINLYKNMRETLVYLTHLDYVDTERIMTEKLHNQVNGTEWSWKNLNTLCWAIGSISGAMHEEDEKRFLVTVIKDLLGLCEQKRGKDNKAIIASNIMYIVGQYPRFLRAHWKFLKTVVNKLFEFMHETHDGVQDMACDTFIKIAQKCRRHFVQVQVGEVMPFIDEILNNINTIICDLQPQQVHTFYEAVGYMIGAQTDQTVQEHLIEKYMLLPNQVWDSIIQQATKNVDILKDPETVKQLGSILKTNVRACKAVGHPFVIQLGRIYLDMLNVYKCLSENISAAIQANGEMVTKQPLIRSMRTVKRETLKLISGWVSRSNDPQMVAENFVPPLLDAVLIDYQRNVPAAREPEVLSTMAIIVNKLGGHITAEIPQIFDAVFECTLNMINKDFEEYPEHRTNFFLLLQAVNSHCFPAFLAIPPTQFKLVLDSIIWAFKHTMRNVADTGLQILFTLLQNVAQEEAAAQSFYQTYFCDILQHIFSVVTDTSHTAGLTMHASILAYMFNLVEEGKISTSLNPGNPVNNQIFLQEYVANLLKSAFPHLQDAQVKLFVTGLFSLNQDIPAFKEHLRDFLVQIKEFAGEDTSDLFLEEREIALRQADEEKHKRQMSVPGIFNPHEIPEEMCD

Take `O=c1ccc2ccccc2o1` [COUMARIN]: the IC50 on Exportin-1 [1] was greater than 25 µM.

For `COc1ccc2ccc(=O)oc2c1` [HERNIARIN], on Exportin-1 [1], the IC50 is greater than 25 µM.

`COc1ccc2ccc(=O)oc2c1CC=C(C)C` [OSTHOLE]: at Exportin-1 [1], the IC50 is 1.6 µM. The inhibition result on Exportin-1 [2] is “Active”.

On to `COc1ccc2c(c1CC=C(C)C)OC(=O)CC2`, for which the inhibition at Exportin-1 [3] turned out to be 2.6%.

For the compound `CC(C)=CCc1cccc2ccc(=O)oc12`, the half-maximal inhibitory concentration (IC50) on Exportin-1 [1] is 6.4 µM.
